Values of other authors as cited in US20070190090A1, “SIALAGOGUE BASED ORAL CARE PRODUCTS” (WhiteHill Oral Technologies, Inc., priority 2006, published 2007).

Experiments:
[1] = mice, orally
[2] = system: certain microorganisms (Gram positive and Gram negative bacteria); conditions: toxicity varying for Gram positive and Gram negative bacteria

For `C/C=C/C=C\CC/C=C/C(=O)NCC(C)C` [affinin, N-isobutyl-2E,6Z,8E-decatrienamide], which analgesic effect ([1]; doses from 2.5 to 10.0 mg/kg) is on record?
The analgesic effect was “analgesic effect”.

What about the deaths ([1]; highest dose (10.0 mg/kg)) of the same molecule?
Its deaths is “two out of five”.

What about the “effect on normal motor activity” value ([1]; highest dose (10.0 mg/kg)) of the same molecule?
The value was “severe depression of normal motor activity”.

What about the “toxicity to certain microorganisms” value [2] of the same molecule?
The value was “toxic”.
